Inhibition in vivo data for 17 compounds are collected here from US9365520B2, “Heterocyclic compound” (Takeda Pharmaceutical Company Limited, priority 2014, dated 2016).

The assay relates to IL-17A gene expression. Kind of assay: Effect on IL-23-induced cytokine expression in mice. It is filed as in vivo, Balb/c mice. The note with it: Mus musculus, 24 h; 10 mg/kg oral, 30 min before and 8 hr after IL-23; ear tissue; versus the negative control group; read-out: percent inhibition of IL-17A gene expression. The procedure: Effect on IL-23-Induced Cytokine Expression in Mice
A mouse IL-23 solution (500 ng/10 μL, prepared by Takeda Pharmaceutical Company Limited) or PBS (10 μL, negative control group) was administered intradermally in the ear of Balb/c mice (Charles River Japan, male, 7 weeks old). Twenty-four hr after administration, the ear was resected under isoflurane anesthesia. The test compound was suspended in 0.5% methylcellulose and administered orally 30 min before and 8 hr after IL-23 administration.
RNA extraction from the ear tissue and quantitative PCR were performed as follows. Specifically, ear tissue 5 mm in diameter was punched from an area of the resected ear centering on the IL-23 injection site, and the tissue was immersed in RNAlater (QIAGEN) for at least 18 hr. The RNAlater-treated ear tissue was homogenized in 350 μL of RLT buffer (RNeasy mini kit, QIAGEN) and treated (55° C., 10 min) with Proteinase K (QIAGEN). Total RNA was then extracted according to the RNeasy mini kit protocol. The RNA thus obtained was then reverse transcribed into cDNA using the High-Capacity RNA-to-cDNA kit (Applied Biosystems), and the amount of each gene expressions was measured by real-time PCR (Viia7™, Applied Biosystems). The PCR buffer used was TaqMan Fast Advanced Master Mix (Applied Biosystems), and TaqMan Gene Expression Assays (Applied Biosystems) Mm00439618_m1 (IL-17A) and 4352341E (β-actin) were used for each gene detection. The IL-17A gene expression level was normalized to the β-actin gene expression level, and the percent inhibition of IL-17A gene expression with the test compound was then calculated.
The results (percent inhibition of IL-17A gene expression with oral administration of the test compound) measured by the above-mentioned method are shown in Table 9.
For `COc1ccc2c(c1)CCN(C(=O)[C@H]1C[C@@H](C(=O)O)C1)[C@H]2C(=O)Nc1cc(F)c([Si](C)(C)C)c(F)c1` [Example 5, cis-3-(((1R)-1-((3,5-difluoro-4-(trimethylsilyl)phenyl)carbamoyl)-6-methoxy-3,4-dihydroisoquinolin-2(1H)-yl)carbonyl)cyclobutanecarboxylic acid], the inhibition in vivo at 10 mg/kg was found to be 57%. Regarding `CCOCC(C)(C)c1c(F)cc(NC(=O)[C@H]2c3ccc(OCC)cc3CCN2C(=O)[C@H]2C[C@@H](CC(=O)O)C2)cc1F` [Example 18, (cis-3-(((1R)-6-ethoxy-1-((4-(1-ethoxy-2-methylpropan-2-yl)-3,5-difluorophenyl)carbamoyl)-3,4-dihydroisoquinolin-2(1H)-yl)carbonyl)cyclobutyl)acetic acid], the inhibition in vivo at 10 mg/kg came to 72%.

In the case of `COc1ccc2c(c1)CCN(C(=O)[C@H]1C[C@@H]1CC(=O)O)[C@H]2C(=O)Nc1cc(F)c([Si](C)(C)C)c(F)c1` [Example 29, ((1R,2S)-2-(((1R)-1-((3,5-difluoro-4-(trimethylsilyl)phenyl)carbamoyl)-6-methoxy-3,4-dihydroisoquinolin-2(1H)-yl)carbonyl)cyclopropyl)acetic acid], the inhibition in vivo at 10 mg/kg is 73%. In the case of `COc1ccc2c(n1)CCN(C(=O)[C@H]1C[C@@H]1CC(=O)O)[C@H]2C(=O)Nc1cc(F)c2c(c1)CCC2(C)C` [Example 6, ((1R,2S)-2-(((5R)-5-((7-fluoro-1,1-dimethyl-2,3-dihydro-1H-inden-5-yl)carbamoyl)-2-methoxy-7,8-dihydro-1,6-naphthyridin-6(5H)-yl)carbonyl)cyclopropyl)acetic acid], the inhibition in vivo at 10 mg/kg is 95%. Regarding `COc1ccc2c(c1)CCN(C(=O)[C@H]1C[C@@H](CC(=O)O)C1)[C@H]2C(=O)Nc1ccc([Si](C)(C)C)c(F)c1` [Example 33, (cis-3-(((1R)-1-((3-fluoro-4-(trimethylsilyl)phenyl)carbamoyl)-6-methoxy-3,4-dihydroisoquinolin-2(1H)-yl)carbonyl)cyclobutyl)acetic acid], the inhibition in vivo at 10 mg/kg came out at 94%. In the case of `COc1ccc2c(c1)CCN(C(=O)[C@H]1C[C@@H](CC(=O)O)C1)[C@H]2C(=O)Nc1cc(F)c([Si](C)(C)C)c(F)c1` [Example 25, (cis-3-(((1R)-1-((3,5-difluoro-4-(trimethylsilyl)phenyl)carbamoyl)-6-methoxy-3,4-dihydroisoquinolin-2(1H)-yl)carbonyl)cyclobutyl)acetic acid], the inhibition in vivo at 10 mg/kg is 92%. On to `COc1ccc2c(c1)CCN(C(=O)[C@H]1C[C@@H](C(=O)O)C1)[C@H]2C(=O)Nc1ccc([Si](C)(C)C)c(F)c1` [Example 32, cis-3-(((1R)-1-((3-fluoro-4-(trimethylsilyl)phenyl)carbamoyl)-6-methoxy-3,4-dihydroisoquinolin-2(1H)-yl)carbonyl)cyclobutanecarboxylic acid], for which the inhibition in vivo at 10 mg/kg came to 83%.

Consider `COc1ccc2c(n1)CCN(C(=O)[C@H]1C[C@@H](CC(=O)O)C1)[C@H]2C(=O)Nc1cc(F)c([Si](C)(C)C)c(F)c1` [Example 23, (cis-3-(((5R)-5-((3,5-difluoro-4-(trimethylsilyl)phenyl)carbamoyl)-2-methoxy-7,8-dihydro-1,6-naphthyridin-6(5H)-yl)carbonyl)cyclobutyl)acetic acid], for which the inhibition in vivo at 10 mg/kg turned out to be 96%. Then `COc1ccc2c(c1)CCN(C(=O)C1CC(CC(=O)O)C1)[C@H]2C(=O)Nc1cc(F)c([Si](C)(C)C)c(F)c1` (stereo partly drawn) [Example 4, (3-(((1R)-1-((3,5-difluoro-4-(trimethylsilyl)phenyl)carbamoyl)-6-methoxy-3,4-dihydroisoquinolin-2(1H)-yl)carbonyl)cyclobutyl)acetic acid], with 86%. On to `COc1ccc2c(n1)CCN(C(=O)[C@H]1C[C@H](CC(=O)O)C1)[C@H]2C(=O)Nc1cc(F)c2c(c1)CCC2(C)C` [Example 20, (trans-3-(((5R)-5-((7-fluoro-1,1-dimethyl-2,3-dihydro-1H-inden-5-yl)carbamoyl)-2-methoxy-7,8-dihydro-1,6-naphthyridin-6(5H)-yl)carbonyl)cyclobutyl)acetic acid], for which the inhibition in vivo at 10 mg/kg was determined as 99%. Then `COc1ccc2c(n1)CCN(C(=O)[C@H]1C[C@@H]1CC(=O)O)[C@H]2C(=O)Nc1cc(F)c([Si](C)(C)C)c(F)c1` [Example 13, ((1R,2S)-2-(((5R)-5-((3,5-difluoro-4-(trimethylsilyl)phenyl)carbamoyl)-2-methoxy-7,8-dihydro-1,6-naphthyridin-6(5H)-yl)carbonyl)cyclopropyl)acetic acid], with 91%. Then `COc1ccc2c(n1)CCN(C(=O)[C@H]1C[C@@H](C(=O)OCc3ccccc3)C1)[C@H]2C(=O)Nc1cc(F)c2c(c1)CCC2(C)C` [Example 36, benzyl cis-3-(((5R)-5-((7-fluoro-1,1-dimethyl-2,3-dihydro-1H-inden-5-yl)carbamoyl)-2-methoxy-7,8-dihydro-1,6-naphthyridin-6(5H)-yl)carbonyl)cyclobutanecarboxylate], with 78%; and `CCOc1ccc2c(c1)CCN(C(=O)[C@H]1C[C@H](C(=O)O)C1)[C@H]2C(=O)Nc1cc(F)c([Si](C)(C)C)c(F)c1` [Example 9, trans-3-(((1R)-1-((3,5-difluoro-4-(trimethylsilyl)phenyl)carbamoyl)-6-ethoxy-3,4-dihydroisoquinolin-2(1H)-yl)carbonyl)cyclobutanecarboxylic acid], with 57%; and `CCOc1ccc2c(c1)CCN(C(=O)[C@H]1C[C@@H](C(=O)O)C1)[C@H]2C(=O)Nc1cc(F)c([Si](C)(C)C)c(F)c1` [Example 8, cis-3-(((1R)-1-((3,5-difluoro-4-(trimethylsilyl)phenyl)carbamoyl)-6-ethoxy-3,4-dihydroisoquinolin-2(1H)-yl)carbonyl)cyclobutanecarboxylic acid], with 72%. Then `COCc1ccc2c(c1)CCN(C(=O)[C@H]1C[C@H](CC(=O)O)C1)[C@H]2C(=O)Nc1cc(F)c2c(c1)CCC2(C)C` [Example 24, (trans-3-(((1R)-1-((7-fluoro-1,1-dimethyl-2,3-dihydro-1H-inden-5-yl)carbamoyl)-6-(methoxymethyl)-3,4-dihydroisoquinolin-2(1H)-yl)carbonyl)cyclobutyl)acetic acid], with 74%. For the compound `COc1ccc2c(n1)CCN(C(=O)[C@H]1C[C@@H](C(=O)O)C1)[C@H]2C(=O)Nc1cc(F)c([Si](C)(C)C)c(F)c1` [Example 31, cis-3-(((5R)-5-((3,5-difluoro-4-(trimethylsilyl)phenyl)carbamoyl)-2-methoxy-7,8-dihydro-1,6-naphthyridin-6(5H)-yl)carbonyl)cyclobutanecarboxylic acid], the inhibition in vivo at 10 mg/kg was 85%. As to `COc1ccc2c(n1)CCN(C(=O)[C@H]1C[C@H](CC(=O)O)C1)[C@H]2C(=O)Nc1cc(F)c([Si](C)(C)C)c(F)c1` [Example 28, (trans-3-(((5R)-5-((3,5-difluoro-4-(trimethylsilyl)phenyl)carbamoyl)-2-methoxy-7,8-dihydro-1,6-naphthyridin-6(5H)-yl)carbonyl)cyclobutyl)acetic acid], the inhibition in vivo at 10 mg/kg was found to be 91%.
